Source: patent publication US20060025474A1, “Bisphenyl compounds useful as vitamin D3 receptor agonists” (priority 2004, published 2006)

These molecules were tested on ECAC2 mRNA in Caco-2 cells.
Type: cell-based
Experimental: The mRNA Expression Assay of ECAC2 in Caco-2 Cells
The dispersed cells were plated in 48-well plate at a concentration of 6.3×10^4 cells/well and incubated for 4 days at 37° C. The culture medium (Dulbecco's Modified Eagle Medium (D-MEM) without NaHCO3 with 44 mM NaHCO3, 1 mM non-essential amino acids, and 2 mM L-glutamine, 90%; fetal bovine serum, 10%) was then replaced with the same medium containing various concentrations of LG190178 (the compound disclosed in WO00/10958 and the corresponding U.S. Pat. No. 6,218,430 B1) or the compounds of the present invention, and cells were cultured for 1 day at 37° C. The culture medium containing the compounds was changed twice per day.
Total RNA Isolation from Caco-2 Cell
Total RNA was isolated from Caco-2 cell following ABI PRISM™ 6100 Nucleic Acid PrepStation protocol from Applied Biosystems.
Real Time RT-PCR Assay of ECAC2
ECAC2 mRNA expression was determined using TaqMan One-step RT-PCR Master Mix Reagents Kit and PRISM7000 systems from Applied Biosystems.
Primer information and cycle conditions are 1)ECAC2, forward 5′-[…]-3′, reverse 5′-GTCCTCTGTCTGGMGATGA-3′, Taqman probe 5′-[…]-3′, 55 cycles, annealing temperature (Ta)=60° C.; 2)GAPDH, forward 5′-GMGGTGMGGTCGGAGTC-3′, reverse 5′-GMGATGGTGATGGGATTTC-3′, Taqman probe 5′-[…]-3′, 55 cycles, Ta=60° C. ECAC2 mRNA values were normalized for the expression of GAPDH mRNA within each sample.
Comparison of ECAC2 mRNA Value
The EC50 values of ECAC2 mRNA values were analyzed by Emax models. The ECAC2 mRNA ratio was calculated as the ratio of the EC50 value of the compounds to that of LG190178. ECAC2 is a channel-like transporter mediating intestinal calcium absorption. It is described in J Biol Chem. Aug. 6, 1999; 274(32):22739-46 for example.

| SMILES | ECaC-2 mRNA induction activity in Caco-2 cells [%] |
| --- | --- |
| CCc1cc(C(CC)(CC)c2ccc(C(=O)N[C@H](C)C(=O)O)s2)ccc1OCC(C)(O)C(C)(C)C (single isomer, unassigned) [Compound A, reference compound] | 123 |
| CCC(CC)(c1ccc(/C=C/C(O)(C(F)(F)F)C(F)(F)F)c(C)c1)c1ccc(OC[C@@H](O)CO)c(C)c1 [Example 69, (S)-3-(4-{1-ethyl-1-[3-methyl-4-((E)-4,4,4-trifluoro-3-hydroxy-3-trifluoromethyl-but-1-enyl)-phenyl]-propyl}-2-methyl-phenoxy)-propane-1,2-diol] | >10000 |
| CCC(CC)(c1ccc(C#CC(O)C(C)(C)C)c(C)c1)c1ccc(OC[C@@H](O)CCC(=O)O)c(C)c1 (stereo partly drawn) [Example 27, 5-(4-{1-ethyl-1-[4-(3-hydroxy-4,4-dimethyl-pent-1-ynyl)-3-methyl-phenyl]-propyl}-2-methyl-phenoxy)-4(S)-hydroxy-pentanoic acid] | 114 |
| CCC(O)(/C=C/c1ccc(C(CC)(CC)c2ccc(OC[C@H]3CCC(=O)O3)c(C)c2)cc1C)CC [Example 44, (R)-5-(4-{1-ethyl-1-[4-((E)-3-ethyl-3-hydroxy-pent-1-enyl)-3-methyl-phenyl]-propyl}-2-methyl-phenoxymethyl)-dihydro-furan-2-one] | 96 |
| CCC(CC)(c1ccc(/C=C/C(O)(C(F)(F)F)C(F)(F)F)c(C)c1)c1ccc(OC[C@H](O)CC(=O)O)c(C)c1 [Example 54, (R)-4-(4-{1-ethyl-1-[3-methyl4-((E)-4,4,4-trifluoro-3-hydroxy-3-trifluoromethyl-but-1-enyl)-phenyl]-propyl}-2-methyl-phenoxy)-3-hydroxy-butyric acid] | 172 |

Second part, the molecule after the results:

| ECaC-2 mRNA induction activity in Caco-2 cells [%] | SMILES |
| --- | --- |
| 399 | CCC(CC)(c1ccc(C#CC(O)(C(F)(F)F)C(F)(F)F)c(C)c1)c1ccc(CCC(=O)O)c(C)c1 [Example 106, 3-(4-{1-ethyl-1-[3-methyl-4-(4,4,4-trifluoro-3-hydroxy-3-trifluoromethyl-but-1-ynyl)-phenyl]-propyl}-2-methyl-phenyl)-propionic acid] |
| 86 | CCC(CC)(c1ccc(/C=C/C(O)(C(F)(F)F)C(F)(F)F)c(C)c1)c1ccc(OC[C@H]2CCCO2)c(C)c1 [Example 155, (E)4-[4-(1-Ethyl-1-{3-methyl4-[(R)-1-(tetrahydro-furan-2-yl)methoxy]-phenyl}-propyl)-2-methyl-phenyl]-11,11-trifluoro-2-trifluoromethyl-but-3-en-2-ol] |
| 135 | CCC(O)(/C=C/c1ccc(C(CC)(CC)c2ccc(OCC(=O)NCCN)c(C)c2)cc1C)CC [Example 195, (E)-N-(2-Amino-ethyl)-2-(4-{1-ethyl-1-[4-(3-ethyl-3-hydroxy-pent-1-enyl)-3-methyl-phenyl]-propyl}-2-methyl-phenoxy)-acetamide] |
| 1784 | CCC(CC)(c1ccc(/C=C/C(O)(C(F)(F)F)C(F)(F)F)c(C)c1)c1ccc(OC[C@H](O)CCCO)c(C)c1 [Example 154, (R)-5-(4-{1-Ethyl-1-[3-methyl4-((E)-4,4,4-trifluoro-3-hydroxy-3-trifluoromethyl-but-1-enyl)-phenyl]-propyl}-2-methyl-phenoxy)-pentane-1,4-diol] |
| 86 | CCC(O)(/C=C/c1ccc(C(CC)(CC)c2cc(C)c(OC[C@@H]3CCC(=O)O3)c(C)c2)cc1C)CC [Example 166, (S)-5-(4-{1-Ethyl-1-[4-((E)-3-ethyl-3-hydroxy-pent-1-enyl)-3-methyl-phenyl]-propyl}-2,6-dimethyl-phenoxymethyl)-dihydro-furan-2-one] |
| 586 | CCC(CC)(c1ccc(C#CC(O)(C(F)(F)F)C(F)(F)F)c(C)c1)c1ccc(OC[C@H](O)CCCO)c(C)c1 [Example 152, (R)-5-(4-{1-Ethyl-1-[3-methyl-4-(4,4,4-trifluoro-3-hydroxy-3-trifluoromethyl-but-1-ynyl)-phenyl]-propyl}-2-methyl-phenoxy)-pentane-1,4-diol] |
